Source: paper PMC3514653 (Neuromodulation : journal of the International …, 2012)

Experiments:
Male beagle dogs = conditions: dog, in vivo
[1] = dog; intrathecal; cited from earlier work
[2] = dog, in vivo

CSCC[C@@H]1NC(=O)[C@H](CC(C)C)NC(=O)[C@H](CCCNC(=N)N)NC(=O)[C@H](CO)NC(=O)[C@@H]2CSSC[C@@H]3NC(=O)[C@H](CO)NC(=O)CNC(=O)[C@H]([C@@H](C)O)NC(=O)[C@H](CSSC[C@H](N)C(=O)N[C@@H](CCCCN)C(=O)NCC(=O)N[C@@H](CCCCN)C(=O)NCC(=O)N[C@@H](C)C(=O)N[C@@H](CCCCN)C(=O)N2)NC(=O)[C@H](CSSC[C@@H](C(N)=O)NC(=O)[C@H](CCCCN)NC(=O)CNC(=O)[C@H](CO)NC(=O)[C@H](CCCNC(=N)N)NC3=O)NC(=O)[C@H](CC(=O)O)NC(=O)[C@H](Cc2ccc(O)cc2)NC1=O [Ziconotide]
Decreased arousal and activity (remained responsive), dogs affected (Male beagle dogs): All 5 dogs

O=C(c1ccccc1)c1ccc2n1CCC2C(=O)O (stereo not drawn) [ketorolac]
T1/2 (CSF elimination) in this model [1]: 54 min

inulin [[^3H]Inulin]
T1/2 α in LCSF [2]: 9.6 min
